From patent US20210393645A1, “TREATMENT FOR PROGRESSIVE MULTIPLE SCLEROSIS” (UTI LIMITED PARTNERSHIP, priority 2016, published 2021) come the findings set out here.

Series [1] concerns human neurons. The experiment in a line: Iron (FeSO4) mediated neurotoxicity screening, MAP-2 positive neurons counted. Type of series: cell-based. The conditions noted are these: for viability at 10 µM: Homo sapiens, Neuron, read-out: Drug % control (mean): number of neurons normalized to untreated control. Summed up: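 Fetal human neurons (15-20 wk), plated with cytosine arabinoside, were pre-incubated 1 h with compounds (10 mM DMSO stocks) before FeSO4 at 25-50 μM final. Cells fixed a day later; MAP-2 immunostaining plus Hoechst nuclei imaged automatically, sites per well averaged; quadruplicates.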

In series [2] the test system is T-cells. Kind of series: Proliferation of T-lymphocytes (3H-thymidine) in anti-CD3/anti-CD28 activated splenocytes. In kind it is cell-based, mouse. To be noted: drug 10 μM; for inhibition at 10 µM: Mus musculus, T-cell, 72 h, read-out: mean reduction of 3H-thymidine incorporation (T-cell proliferation); for toxic effects in the T-cell proliferation test: data not shown. On the procedure: A previously published protocol was used for isolating and activating T-cells (Keough et al., Nature Comm 7:11312, 2016). Spleens from female C57B16 mice were harvested and after mechanical dissociation the cell suspension was passed through a 70 μm cell strainer and separated by Ficoll gradient (1800 RPM, 30 min). Splenocytes were plated (2.5×10^5 cells in 100 μl/well) in anti-CD3 antibody coated 96-well plates (1,000 ng m1^−1 plate-bound anti-CD3 and 1,000 ng m1^−1 anti-CD28 suspended in media) to activate T-cells. Directly before plating, wells were treated with respective drugs in a final concentration of 10 μM. Cells were cultured in RPMI 1640 medium, supplemented with 10% FBS, 1 μM sodium pyruvate, 2 mM L-alanyl-L-glutamine, 1% penicillin/streptomycin, 1% HEPES and 0.05 mM 2-mercaptoethanol (all supplements were from Invitrogen). After 48 h, ^3H-thymidine was added in a concentration of 1 μCi per well, and cells were harvested after 24 h on filter mats. Mats were then evaluated for radioactivity (counts per minute) using a liquid scintillation counter.

In series [3] the test system is human neurons. Kind of series: Mitochondrial damage to neurons induced by rotenone. Type of series: cell-based. To be noted: rotenone 10 μM, drug 10 μM. The procedure:
Human neurons were isolated from brain tissues of therapeutically aborted 15-20 week old fetuses, in accordance with ethics approval of the University of Calgary ethics committee, after written informed consent of the pregnant donors. Neurons were isolated as previously described (Vecil et al., 2000) brain specimens were washed in phosphate buffered saline (PBS) to remove blood, followed by removal of meninges. […] Thereafter, the digestion was stopped by addition of 4 ml fetal calf serum (FCS). The solution was filtered through a 132 μm filter and centrifuged (three times, 1,200 rpm, 10 min). Cells were cultured in feeding medium of minimal essential medium (MEM) supplemented with 10% fetal bovine serum (FBS), 1 μM sodium pyruvate, 10 μM glutamine, 1× non-essential amino acids, 0.1% dextrose and 1% penicillin/streptomycin (all culture supplements from Invitrogen, Burlington, Canada). […] For experiments, the neuron-enriched cultures were retrypsinized and cells were plated in poly-L-ornithine pre-coated 96-well plates at a density of 100,000 cells/well in 100 μl of the complete medium supplemented with cytosine arabinoside. […] All conditions were performed in quadruplicates. A day later cells were fixed using 4% paraformaldehyde (PFA) and stored in PBS in 4° C.
The iron stock solution was prepared using 27.8 mg iron(II) sulfate heptahydrate (FeSO4) (Sigma-Aldrich, Oakville, Canada), 10 μl of 17.8M sulfuric acid and 10 ml deionized distilled water. After filtering with a 0.2 μm filter, FeSO4 was added to cells in a final concentration of 25-50 μM in a volume of 50 μl medium to the cells. Rotenone was dissolved in dimethyl sulfoxide (DMSO) and used in a final concentration of 10 μM.

[4] abbreviates: drug 10 μM 1 h before FeSO4 25 or 50 μM, MAP-2 neurons after 24 h.

“Also recorded” adds a separate entry of the source. Counter-ions that a name gives are not always drawn. Like-named read-outs stand apart in the source and are kept apart here.

Regarding `N[C@@H](C(=O)N[C@@H]1C(=O)N2C(C(=O)O)=C(Cl)CS[C@H]12)c1ccccc1` [CEFACLOR], the viability at 10 µM in series [1] (setting [4]) worked out at 89.9%. Besides, the inhibition at 10 µM in series [2] (vs activated splenocytes) worked out at 23%.

Consider `CN(C)CCCN1c2ccccc2Sc2ccc(Cl)cc21` [CHLORPROMAZINE], for which the viability at 10 µM in series [1] (setting [4]) is 98.8%. The inhibition at 10 µM in series [2] (vs activated splenocytes) worked out at 99.4%. Besides, in series [2], the “toxic effects in the T-cell proliferation test” value is reported as “toxic effects”.

For `OCCN(CCO)c1nc(N2CCCCC2)c2nc(N(CCO)CCO)nc(N3CCCCC3)c2n1` [DIPYRIDAMOLE], in series [1] (setting [4]), the viability at 10 µM worked out at 165%. Also, the inhibition at 10 µM in series [2] (vs activated splenocytes) is 89.3%.

On to `CN(C)CCCN1c2ccccc2CCc2ccccc21` [IMIPRAMINE HYDROCHLORIDE], for which, in series [1] (setting [4]), the viability at 10 µM worked out at 106%. For the same compound, the inhibition at 10 µM in series [2] (vs activated splenocytes) came to 66.4%.

Turning to `CC(CCc1ccccc1)NCC(O)c1ccc(O)c(C(N)=O)c1` (centres unmarked) [LABETALOL HYDROCHLORIDE], the viability at 10 µM in series [1] (setting [4]) was 54.4%. Also, in series [3] (HYDROCHLORIDE), the “neurotoxicity by rotenone (mitochondrial damage)” value (“neurotoxicity by rotenone” for short) is recorded as “reduced neurotoxicity; also recorded: active against damage to the mitochondrial respiratory chain”. Further, in series [2] (vs activated splenocytes), the inhibition at 10 µM is 26.8%.

With `OC(c1cc(C(F)(F)F)nc2c(C(F)(F)F)cccc12)C1CCCCN1` (centres unmarked) [MEFLOQUINE], the viability at 10 µM in series [1] (setting [4]) turned out to be 47%. Moreover, in series [2] (vs activated splenocytes), the inhibition at 10 µM was determined as 62.3%.

For `CC12CC3CC(C)(C1)CC(N)(C3)C2` [MEMANTINE HYDROCHLORIDE], the viability at 10 µM in series [1] (setting [4]) was 53.2%. In addition, the “increase of T-cell proliferation” value in series [2] (vs activated splenocytes) came out at 17.5%.

In the case of `O=C1c2c(O)ccc(O)c2C(=O)c2c(NCCNCCO)ccc(NCCNCCO)c21` [MITOXANTHRONE HYDROCHLORIDE], the viability at 10 µM in series [1] (setting [4]) was 52.5%. In addition, the inhibition at 10 µM in series [2] (vs activated splenocytes) is 99.7%. Besides, the “toxic effects in the T-cell proliferation test” value in series [2] is “toxic effects”.

As to `N#Cc1ccc2c(c1)N(CCCN1CCC(O)CC1)c1ccccc1S2` [PERICIAZINE], in series [1] (setting [4]), the viability at 10 µM amounted to 82%. Also, in series [1] (drug 10 μM, human neurons), the “protection from FeSO4-mediated neurotoxicity (in words)” value is “strong protection”. Further, the “neurotoxicity by rotenone” value in series [3] is “reduced neurotoxicity”. In addition, the inhibition at 10 µM in series [2] (vs activated splenocytes) was 28%.

On to `CC(CN1c2ccccc2Sc2ccccc21)N(C)C` (centres unmarked) [PROMETHAZINE HYDROCHLORIDE], for which the viability at 10 µM in series [1] (setting [4]) came out at 105%. The “neurotoxicity by rotenone” value in series [3] is given as “reduced neurotoxicity”. Also, the inhibition at 10 µM in series [2] (vs activated splenocytes) turned out to be 74.6%.

Consider `CN(CCOc1ccc(CC2SC(=O)NC2=O)cc1)c1ccccn1` (centres unmarked) [ROSIGLITAZONE], for which the viability at 10 µM in series [1] (setting [4]) stood at 77.6%.

In the case of `CC(C)c1nc(N(C)S(C)(=O)=O)nc(-c2ccc(F)cc2)c1/C=C/[C@@H](O)C[C@@H](O)CC(=O)O` [ROSUVASTATIN], the viability at 10 µM in series [1] (setting [4]) is 35.4%.

On to `CC(=O)S[C@@H]1CC2=CC(=O)CC[C@]2(C)[C@H]2CC[C@@]3(C)[C@@H](CC[C@@]34CCC(=O)O4)[C@H]12` [SPIRONOLACTONE], for which the viability at 10 µM in series [1] (setting [4]) stood at 37.1%.

Turning to `Cc1cc(NS(=O)(=O)c2ccc(N)cc2)no1` [SULFAMETHOXAZOLE], the viability at 10 µM in series [1] (setting [4]) was found to be 16.2%.

Consider `O=C1C(CC[S+]([O-])c2ccccc2)C(=O)N(c2ccccc2)N1c1ccccc1` (centres unmarked) [SULFINPYRAZONE], for which the viability at 10 µM in series [1] (setting [4]) stood at 46.5%.

For `Cc1noc(NS(=O)(=O)c2ccc(N)cc2)c1C` [SULFISOXAZOLE], the viability at 10 µM in series [1] (setting [4]) is 38.3%.

With `CN(C)[C@@H]1C(O)=C(C(N)=O)C(=O)[C@@]2(O)C(O)=C3C(=O)c4c(O)cccc4[C@@](C)(O)[C@H]3C[C@@H]12` [TETRACYCLINE HYDROCHLORIDE], in series [1] (setting [4]), the viability at 10 µM was determined as 25%.

Consider `Cn1c(=O)c2[nH]cnc2n(C)c1=O` [THEOPHYLLINE], for which the viability at 10 µM in series [1] (24 h) was 23.3%.

In the case of `Nc1nc2nc[nH]c2c(=S)[nH]1` [THIOGUANINE], the viability at 10 µM in series [1] (setting [4]) is 21.7%.

Turning to `CC(C)(C)NC[C@H](O)COc1nsnc1N1CCOCC1` [TIMOLOL MALEATE], in series [1] (setting [4]), the viability at 10 µM came to 11.1%.

Take `CCCCNC(=O)NS(=O)(=O)c1ccc(C)cc1` [TOLBUTAMIDE]: the viability at 10 µM in series [1] (setting [4]) is 9.09%.

Consider `Cc1c(Cl)cccc1Nc1ccccc1C(=O)O` [TOLFENAMIC ACID], for which the viability at 10 µM in series [1] (setting [4]) was 40.3%.

On to `CC1(C)O[C@@H]2[C@@H](CO[C@@]3(COS(N)(=O)=O)OC(C)(C)O[C@@H]23)O1` [TOPIRAMATE], for which, in series [1] (setting [4]), the viability at 10 µM came out at 46.1%.

In the case of `CCOC(=O)[C@H](CCc1ccccc1)N[C@@H](C)C(=O)N1[C@H](C(=O)O)C[C@H]2CCCC[C@@H]21` [TRANDOLAPRIL], the viability at 10 µM in series [1] (setting [4]) worked out at 72.3%.

Regarding `NC[C@H]1CC[C@H](C(=O)O)CC1` [TRANEXAMIC ACID], the viability at 10 µM in series [1] (setting [4]) worked out at 36.3%.

For `N[C@@H]1C[C@H]1c1ccccc1.N[C@H]1C[C@@H]1c1ccccc1.O=S(=O)(O)O` [TRANYLCYPROMINE SULFATE], the “Drug % control (mean): number of neurons normalized to untreated control” value in series [1] turned out to be 21.59%.

Turning to `O=c1n(CCCN2CCN(c3cccc(Cl)c3)CC2)nc2ccccn12` [TRAZODONE HYDROCHLORIDE], the viability at 10 µM in series [1] (setting [4]) is 25.9%.

For `CN1CCN(CCCN2c3ccccc3Sc3ccc(C(F)(F)F)cc32)CC1` [TRIFLUOPERAZINE HYDROCHLORIDE], in series [1] (setting [4]), the viability at 10 µM is 4.42%.

As to `C[C@H](CCC(=O)O)[C@H]1CC[C@H]2[C@@H]3[C@@H](O)C[C@@H]4C[C@H](O)CC[C@]4(C)[C@H]3CC[C@]12C` [URSODIOL], the viability at 10 µM in series [1] (setting [4]) was determined as 24.6%.

With `CN[C@H](CC(C)C)C(=O)N[C@H]1C(=O)N[C@@H](CC(N)=O)C(=O)N[C@H]2C(=O)N[C@H]3C(=O)N[C@H](C(=O)N[C@H](C(=O)O)c4cc(O)cc(O)c4-c4cc3ccc4O)[C@H](O)c3ccc(c(Cl)c3)Oc3cc2cc(c3O[C@@H]2O[C@H](CO)[C@@H](O)[C@H](O)[C@H]2O[C@H]2C[C@](C)(N)[C@H](O)[C@H](C)O2)Oc2ccc(cc2Cl)[C@H]1O` [VANCOMYCIN HYDROCHLORIDE], in series [1] (24 h), the viability at 10 µM was determined as 11.7%.

As to `COc1ccc(C(CN(C)C)C2(O)CCCCC2)cc1` (centres unmarked) [VENLAFAXINE], the viability at 10 µM in series [1] (setting [4]) amounted to 72.5%.

As for `COC(=O)[C@@H]1[C@H]2C[C@H]3c4[nH]c5ccccc5c4CCN3C[C@@H]2CC[C@@H]1O` [YOHIMBINE HYDROCHLORIDE], the viability at 10 µM in series [1] (setting [4]) is 100%.

Turning to `Cc1cn([C@H]2C[C@H](N=[N+]=[N-])[C@@H](CO)O2)c(=O)[nH]c1=O` [ZIDOVUDINE [AZT]], in series [1] (setting [4]), the “Drug % control (mean): number of neurons normalized to untreated control” value was determined as 66.49%.

As for `CN(C)CCc1c[nH]c2ccc(C[C@H]3COC(=O)N3)cc12` [ZOLMITRIPTAN], the viability at 10 µM in series [1] (setting [4]) stood at 54.9%.

As for CRESOL, in series [1] (setting [4]), the “Drug % control (mean): number of neurons normalized to untreated control” value was found to be 6.04%.

For TRIMEPRAZINE TARTRATE, in series [1] (setting [4]), the “Drug % control (mean): number of neurons normalized to untreated control” value came to 73.31%. In addition, the “mean reduction of 3H-thymidine incorporation (T-cell proliferation)” value in series [2] (vs activated splenocytes) is on record as 43.3%.
